Measurements from ChEMBL document CHEMBL1201862, “PubChem BioAssay data set” (2004).
Activity calls are given as the source filed them.

What was measured:
[1] = target: T1, Eukaryotic translation initiation factor 2-alpha kinase 3 (Homo sapiens, UniProt Q9NZJ5); test: Counterscreen assay for PERK inhibitors: Dose response cell-based high throughput screening assay to measure inhibition of PERK at 6 hours. [Related pubchem assays: 1522, 1416 ]; assay type: functional
T1 sequence (Q9NZJ5 whole entry): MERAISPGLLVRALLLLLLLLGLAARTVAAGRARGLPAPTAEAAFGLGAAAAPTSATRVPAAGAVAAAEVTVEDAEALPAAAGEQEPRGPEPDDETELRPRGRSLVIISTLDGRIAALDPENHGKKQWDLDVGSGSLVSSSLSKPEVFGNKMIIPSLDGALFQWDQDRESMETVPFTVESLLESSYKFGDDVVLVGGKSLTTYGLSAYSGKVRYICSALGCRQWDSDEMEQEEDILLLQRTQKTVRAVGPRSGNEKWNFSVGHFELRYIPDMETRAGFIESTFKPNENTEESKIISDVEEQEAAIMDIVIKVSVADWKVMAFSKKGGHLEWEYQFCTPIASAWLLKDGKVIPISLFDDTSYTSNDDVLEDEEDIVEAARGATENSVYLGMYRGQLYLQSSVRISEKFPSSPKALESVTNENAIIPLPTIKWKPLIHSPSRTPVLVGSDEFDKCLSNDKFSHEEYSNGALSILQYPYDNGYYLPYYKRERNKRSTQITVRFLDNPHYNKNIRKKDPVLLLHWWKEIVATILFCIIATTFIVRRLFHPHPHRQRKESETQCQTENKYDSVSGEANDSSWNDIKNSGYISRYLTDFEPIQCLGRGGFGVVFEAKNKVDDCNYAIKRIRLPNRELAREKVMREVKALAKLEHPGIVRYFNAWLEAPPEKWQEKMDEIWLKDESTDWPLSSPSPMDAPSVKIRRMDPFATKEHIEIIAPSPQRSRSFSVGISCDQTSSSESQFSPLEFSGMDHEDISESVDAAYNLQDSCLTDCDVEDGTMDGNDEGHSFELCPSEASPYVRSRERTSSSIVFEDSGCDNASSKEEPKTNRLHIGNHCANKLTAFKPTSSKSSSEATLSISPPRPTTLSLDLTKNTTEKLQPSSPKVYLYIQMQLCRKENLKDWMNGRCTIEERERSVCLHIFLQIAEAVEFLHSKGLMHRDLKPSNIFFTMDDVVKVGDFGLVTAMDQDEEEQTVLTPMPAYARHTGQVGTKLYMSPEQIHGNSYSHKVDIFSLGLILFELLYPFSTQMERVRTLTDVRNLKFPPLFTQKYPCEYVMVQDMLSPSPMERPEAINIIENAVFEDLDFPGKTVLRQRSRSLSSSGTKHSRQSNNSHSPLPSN

[2] = target: T2, Heat shock factor protein 1 (Mus musculus, UniProt P38532); test: decrease of HSF1-responsive luciferase luminescence – cell-based, NIH3T3, dose retest, confirmation (AID 2382); assay type: functional;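 also: NIH3T3 fibroblasts with HSF1-driven luciferase reporter stressed by proteasome inhibitor MG132; luminescence from HSF1-driven luciferase expression after 8 hours of MG132 stress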
T2 sequence (P38532 whole entry): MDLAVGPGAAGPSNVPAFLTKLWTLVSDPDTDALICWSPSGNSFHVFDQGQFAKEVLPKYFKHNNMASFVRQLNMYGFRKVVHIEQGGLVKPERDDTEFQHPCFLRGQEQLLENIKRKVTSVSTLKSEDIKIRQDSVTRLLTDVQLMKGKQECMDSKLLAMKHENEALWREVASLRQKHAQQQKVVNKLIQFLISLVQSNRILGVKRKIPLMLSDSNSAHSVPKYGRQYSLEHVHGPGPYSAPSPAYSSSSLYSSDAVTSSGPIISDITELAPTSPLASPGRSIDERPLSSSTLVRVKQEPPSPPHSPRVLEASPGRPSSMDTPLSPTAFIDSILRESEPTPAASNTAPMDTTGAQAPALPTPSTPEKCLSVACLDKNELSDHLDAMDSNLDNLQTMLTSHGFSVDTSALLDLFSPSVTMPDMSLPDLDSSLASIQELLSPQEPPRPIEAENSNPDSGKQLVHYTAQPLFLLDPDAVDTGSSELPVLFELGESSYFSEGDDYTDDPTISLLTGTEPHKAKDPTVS

[3] = target: T1, Eukaryotic translation initiation factor 2-alpha kinase 3; test: Dose response cell-based high-throughput screening assay to measure PERK inhibition. [Related pubchem assays: 1416 ]; assay type: functional
Coagulation factor XII = target: T3, Coagulation factor XII (Homo sapiens, UniProt P00748); assay type: functional;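 also: activated factor XIIa alpha cleaving a fluorogenic AMC peptide substrate; inhibitor potency from loss of enzyme activity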
T3 sequence (P00748 whole entry): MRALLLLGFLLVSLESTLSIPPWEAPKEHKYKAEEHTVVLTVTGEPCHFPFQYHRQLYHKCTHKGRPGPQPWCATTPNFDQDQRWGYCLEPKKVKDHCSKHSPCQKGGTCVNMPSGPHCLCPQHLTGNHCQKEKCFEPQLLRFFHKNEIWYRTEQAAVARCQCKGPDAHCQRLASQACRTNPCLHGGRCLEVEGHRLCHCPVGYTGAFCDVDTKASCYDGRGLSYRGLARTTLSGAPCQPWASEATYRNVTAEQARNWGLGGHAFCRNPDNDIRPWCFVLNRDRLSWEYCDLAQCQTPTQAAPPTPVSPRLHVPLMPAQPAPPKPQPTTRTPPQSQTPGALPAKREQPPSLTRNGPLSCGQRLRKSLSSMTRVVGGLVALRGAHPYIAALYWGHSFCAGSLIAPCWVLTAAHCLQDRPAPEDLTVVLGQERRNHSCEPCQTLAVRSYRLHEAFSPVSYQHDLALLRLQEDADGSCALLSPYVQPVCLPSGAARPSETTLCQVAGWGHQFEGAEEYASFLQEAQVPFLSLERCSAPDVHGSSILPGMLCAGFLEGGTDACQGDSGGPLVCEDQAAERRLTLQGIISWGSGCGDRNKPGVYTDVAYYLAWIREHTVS

Bcl-2-like protein 10 = Bcl-2-like protein 10 (Homo sapiens, UniProt Q9HD36); test: Bcl-B/TR3 peptide binding disruption – biochemical, fluorescence polarization, FITC-TR3 peptide, selectivity assay for Bfl-1 inhibitor project, primary screen (AID 748);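 also: fluorescence polarization from a fluorescein-labelled TR3 peptide binding purified Bcl-B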
Sequence of Bcl-2-like protein 10 (Q9HD36 whole entry): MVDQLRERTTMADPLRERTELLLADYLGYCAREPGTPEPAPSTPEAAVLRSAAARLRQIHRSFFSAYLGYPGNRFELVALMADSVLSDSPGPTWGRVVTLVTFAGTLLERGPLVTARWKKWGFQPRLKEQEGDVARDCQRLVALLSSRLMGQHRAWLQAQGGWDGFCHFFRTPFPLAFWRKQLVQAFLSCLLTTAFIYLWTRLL

SUMO-activating enzyme [4] = target: T4, SUMO-activating enzyme (Homo sapiens, UniProt Q9UBT2); test: blockers of SAE1/SAE2–UBC9 SUMO transfer – biochemical, HTRF, uHTS, primary screen (AID 2006); assay type: protein-complex assay
T4 sequence (Q9UBE0 whole entry): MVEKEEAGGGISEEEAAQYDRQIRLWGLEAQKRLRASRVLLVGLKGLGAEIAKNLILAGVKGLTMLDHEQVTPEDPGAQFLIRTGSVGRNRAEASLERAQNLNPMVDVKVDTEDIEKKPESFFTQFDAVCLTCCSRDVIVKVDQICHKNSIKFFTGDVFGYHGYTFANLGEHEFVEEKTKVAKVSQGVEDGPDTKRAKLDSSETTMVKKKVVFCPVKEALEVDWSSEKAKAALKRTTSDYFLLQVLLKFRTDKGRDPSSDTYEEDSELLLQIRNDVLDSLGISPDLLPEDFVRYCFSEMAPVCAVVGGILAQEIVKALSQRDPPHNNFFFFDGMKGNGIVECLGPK
T4 sequence (Q9UBT2 whole entry): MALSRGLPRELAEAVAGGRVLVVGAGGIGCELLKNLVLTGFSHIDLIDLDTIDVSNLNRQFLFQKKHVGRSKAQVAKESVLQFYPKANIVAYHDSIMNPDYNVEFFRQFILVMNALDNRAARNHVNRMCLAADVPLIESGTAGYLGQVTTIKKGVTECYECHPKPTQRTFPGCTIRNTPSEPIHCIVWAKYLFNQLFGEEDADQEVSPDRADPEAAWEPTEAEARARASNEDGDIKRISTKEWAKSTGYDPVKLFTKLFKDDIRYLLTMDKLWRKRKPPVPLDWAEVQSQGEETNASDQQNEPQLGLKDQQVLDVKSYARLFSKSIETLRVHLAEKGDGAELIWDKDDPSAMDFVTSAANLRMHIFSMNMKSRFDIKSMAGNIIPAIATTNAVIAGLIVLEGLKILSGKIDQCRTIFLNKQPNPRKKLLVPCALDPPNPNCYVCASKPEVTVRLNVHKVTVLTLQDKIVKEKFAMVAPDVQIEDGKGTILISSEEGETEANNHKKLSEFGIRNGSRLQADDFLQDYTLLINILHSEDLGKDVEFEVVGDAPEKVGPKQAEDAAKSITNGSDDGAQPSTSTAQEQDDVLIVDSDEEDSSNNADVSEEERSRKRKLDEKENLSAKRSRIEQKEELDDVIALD

SUMO-activating enzyme [5] = target: T4, SUMO-activating enzyme; test: blockers of UBC9-mediated SUMO conjugation – biochemical, AlphaScreen, SUMOylation inhibitor project, confirmation (AID 2018); assay type: functional
INS1 = test: INS-1E survival protection against cytokine death – cell-based, luminescence, retest, dose response (AID 449756); assay type: functional; conditions: Rattus norvegicus;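 also: cell death triggered by IL-1 beta plus TNF-alpha plus IFN-gamma mixture; protective hits raise ATP signal compared with cytokine alone wells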
[6] = target: T5, Microphthalmia-associated transcription factor (Homo sapiens, UniProt O75030); test: reducers of TRPM1 reporter luminescence, concentration series – cell-based, SK-MEL-5, cherry-picked, set 3, MITF inhibitor project, dose response (AID 493073); assay type: functional;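 also: SK-MEL-5 melanoma cells with luciferase driven by the MITF target TRPM1 promoter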
T5 sequence (O75030 whole entry): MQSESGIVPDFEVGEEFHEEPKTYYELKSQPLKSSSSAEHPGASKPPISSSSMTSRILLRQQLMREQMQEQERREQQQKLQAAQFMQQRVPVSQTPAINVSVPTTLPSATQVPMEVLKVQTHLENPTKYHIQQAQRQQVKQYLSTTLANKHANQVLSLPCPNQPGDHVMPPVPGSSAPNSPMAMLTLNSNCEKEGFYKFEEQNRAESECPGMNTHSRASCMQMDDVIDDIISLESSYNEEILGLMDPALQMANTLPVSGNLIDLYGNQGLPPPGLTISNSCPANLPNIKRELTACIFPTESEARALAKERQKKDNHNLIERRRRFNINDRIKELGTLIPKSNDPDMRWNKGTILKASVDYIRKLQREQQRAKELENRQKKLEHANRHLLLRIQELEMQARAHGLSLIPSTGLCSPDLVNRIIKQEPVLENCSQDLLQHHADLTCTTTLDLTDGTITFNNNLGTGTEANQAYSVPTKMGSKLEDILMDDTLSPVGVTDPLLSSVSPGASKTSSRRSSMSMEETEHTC

[7] = Trypanosoma cruzi growth suppression in host cells – NIH3T3 host cells, beta-gal luminescence, confirmation (AID 2044); assay type: functional, cell-based;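 also: intracellular parasites grown in NIH/3T3 mouse fibroblasts as host cells; luminescent beta-galactosidase reporter signal from transgenic T. cruzi replicating inside host cells; inhibitors lower the luminescence signal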
[8] = Vero E6 cell cytotoxicity, dose response, cytotoxicity control for non-replicating M. tuberculosis project, secondary assay (AID 492998); assay type: functional, VeroE6; conditions: Vero C1008
[9] = THP-1 cell cytotoxicity, dose response, cytotoxicity control for non-replicating M. tuberculosis project (AID 489025); assay type: functional
cells = assay type: functional
Escherichia coli = test: microbe, parasite or virus in culture
[10] = NIH3T3 cell viability loss – ATP luminescence, mouse fibroblasts, counter-screen, dose response (AID 2010); assay type: functional, cell-based;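 also: cells exposed to compound for about 90 hours before reading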
[11] = HepG2 cell cytotoxicity, dose response, cytotoxicity control for non-replicating M. tuberculosis project (AID 489018); assay type: functional; conditions: Mycobacterium tuberculosis
[12] = target: Polyadenylate-binding protein 1 (Homo sapiens, UniProt P11940); test: blockers of PABP interaction with poly(A) – biochemical, fluorescence polarization, […] (AID 2014)
Sequence of Polyadenylate-binding protein 1 (P11940 whole entry, the tested form may be a part): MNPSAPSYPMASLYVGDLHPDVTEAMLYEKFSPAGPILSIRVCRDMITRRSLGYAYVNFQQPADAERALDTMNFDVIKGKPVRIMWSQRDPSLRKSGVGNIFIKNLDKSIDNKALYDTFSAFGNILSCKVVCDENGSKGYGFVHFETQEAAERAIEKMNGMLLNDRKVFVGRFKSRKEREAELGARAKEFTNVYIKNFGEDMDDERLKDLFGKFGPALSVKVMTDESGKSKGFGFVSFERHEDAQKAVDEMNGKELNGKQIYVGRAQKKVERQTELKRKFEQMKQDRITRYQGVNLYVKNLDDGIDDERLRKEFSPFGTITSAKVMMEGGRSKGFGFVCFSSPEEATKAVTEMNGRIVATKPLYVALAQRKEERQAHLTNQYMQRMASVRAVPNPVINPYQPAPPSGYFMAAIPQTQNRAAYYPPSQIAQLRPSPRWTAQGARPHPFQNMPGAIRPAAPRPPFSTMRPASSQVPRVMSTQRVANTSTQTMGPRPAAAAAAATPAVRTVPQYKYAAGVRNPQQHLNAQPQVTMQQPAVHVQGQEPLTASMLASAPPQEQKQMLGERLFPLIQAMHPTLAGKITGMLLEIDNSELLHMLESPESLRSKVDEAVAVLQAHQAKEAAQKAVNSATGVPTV

[13] = target: T6, Carboxy-terminal domain RNA polymerase II polypeptide A small phosphatase 1 (Homo sapiens, UniProt Q9GZU7); test: CTDSP1 inhibitors, concentration-response, biochemical, absorbance readout, ultra-high-throughput screen actives (AID 540297); assay type: functional
T6 sequence (Q9GZU7 whole entry): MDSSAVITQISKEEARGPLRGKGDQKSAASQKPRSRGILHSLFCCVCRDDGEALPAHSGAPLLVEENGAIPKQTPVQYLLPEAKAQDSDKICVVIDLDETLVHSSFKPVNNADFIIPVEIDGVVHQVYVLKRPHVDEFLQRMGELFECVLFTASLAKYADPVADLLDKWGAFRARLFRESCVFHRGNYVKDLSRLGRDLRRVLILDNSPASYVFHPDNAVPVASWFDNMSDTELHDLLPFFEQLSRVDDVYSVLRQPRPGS

[14] = target: Eukaryotic translation initiation factor 4H (Homo sapiens, UniProt Q15056); test: eIF4H binding inhibition – biochemical, uHTS, fluorescence polarization, translation initiation inhibitor project, primary screen (AID 2012)
[15] = target: Acyl-homoserine lactone acylase PvdQ (Pseudomonas aeruginosa (strain LESB58), UniProt Q9I194); test: PvdQ acylase enzyme activity blockers – biochemical, fluorescence, plate reader and imaging, cherry-picks, dose response (AID 493231)
Sequence of Acyl-homoserine lactone acylase PvdQ (Q9I194 24-193 limits assumed): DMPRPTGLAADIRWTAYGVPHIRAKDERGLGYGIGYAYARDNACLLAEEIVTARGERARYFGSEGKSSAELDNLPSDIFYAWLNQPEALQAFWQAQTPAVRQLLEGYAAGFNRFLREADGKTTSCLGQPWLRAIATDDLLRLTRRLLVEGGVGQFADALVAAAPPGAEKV
Sequence of Acyl-homoserine lactone acylase PvdQ (Q9I194 217-762 limits assumed): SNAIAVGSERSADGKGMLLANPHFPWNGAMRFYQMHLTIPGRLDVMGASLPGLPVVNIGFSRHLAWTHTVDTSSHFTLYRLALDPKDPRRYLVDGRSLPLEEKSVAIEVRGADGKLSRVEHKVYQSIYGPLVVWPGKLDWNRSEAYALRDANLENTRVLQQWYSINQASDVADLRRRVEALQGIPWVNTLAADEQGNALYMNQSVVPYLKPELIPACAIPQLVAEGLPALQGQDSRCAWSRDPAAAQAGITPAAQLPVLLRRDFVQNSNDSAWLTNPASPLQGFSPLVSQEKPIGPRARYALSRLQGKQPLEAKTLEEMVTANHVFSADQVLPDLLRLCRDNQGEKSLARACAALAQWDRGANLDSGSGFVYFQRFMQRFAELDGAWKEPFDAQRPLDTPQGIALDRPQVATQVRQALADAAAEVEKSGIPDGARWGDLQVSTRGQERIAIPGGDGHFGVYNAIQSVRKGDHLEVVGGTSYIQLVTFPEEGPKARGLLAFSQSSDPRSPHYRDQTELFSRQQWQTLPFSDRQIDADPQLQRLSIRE

[16] = fluconazole-exposed Candida albicans growth modulators – fluorescence, retest, confirmation (AID 2467); assay type: functional, cell-based
[17] = luciferase reporter signal suppression in cells – H4 neuroglioma cells, luminescence, dose response (AID 1990); assay type: functional, cell-based
[18] = alpha-synuclein stem-loop luciferase translation blockers – H4 neuroglioma cells, luminescence, confirmation (AID 1988); assay type: functional, cell-based
[19] = NIH-3T3 fibroblast cytotoxicity, dose response, cytotoxicity control, cell-based, fluorescence, Alamar Blue, secondary assay (AID 2327); assay type: functional;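 also: NIH-3T3 mouse fibroblasts cultured with fluconazole at 8 µg/mL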
[20] = Luminescence Cell-Based Dose Response HTS to Identify Inhibitors of 5'UTR Stem-Loop Driven Prion Protein mRNA Translation in H4 Neuroglioblastoma Cells. [Related pubchem assays: 1827 (Project Summary), 1813 (Primary HTS)]; assay type: functional
[21] = HEK-293T viability loss after treatment – luminescence, T-cell screen hits, cytotoxicity control for TCR NF-kB inhibitor project, dose response (AID 489026); assay type: functional, cell-based;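 also: cells exposed to compound about 14 hours before the viability readout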

Cc1ccccc1CO/N=C/c1[nH]ncc1Br
EC50 [1]: > 55.7 µM (not active) | EC50 [2]: > 195 µM (not active) | EC50 [3]: > 55.7 µM (not active)

Cc1ccc(S(=O)(=O)NCC(=O)OCC(=O)Nc2ncc(Cl)cc2Cl)cc1
IC50 (Coagulation factor XII): > 50 µM (inactive) | IC50 (Bcl-2-like protein 10): 71.1 µM (inactive)

CN(C)c1cccc(C(=O)OCc2cc(=O)oc3cc(O)ccc23)c1
IC50 (SUMO-activating enzyme [4]): 22.6 µM (active) | IC50 (Bcl-2-like protein 10): 62.4 µM (inactive) | IC50 (SUMO-activating enzyme [5]): 5.73 µM (active)

O=[N+]([O-])c1ccc(/C=N/n2c(CO)nc3ccccc32)s1
AC50 (INS1): 4.91 µM (active) | AC50 [6]: 1.97 µM (active) | EC50 [7]: 568 nM (active) | CC50 [8]: 14.7 µM (active) | CC50 [9]: 32.4 µM (active) | IC50 (cells): 1.51 µM (active) | AC50 (Escherichia coli): 121 µM (active) | EC50 [10]: 42 µM (active) | CC50 [11]: > 20 µM (active)

C[N+]1(CC2COC3(CCCCC3)O2)CCCCC1 (centres undefined)
IC50 [12]: 6.05 µM (active) | IC50 [13]: 8.39 µM (active) | IC50 [14]: > 100 µM (inactive)

C[C@]12CCC[C@H](O1)[C@H]([C@@H](O)c1ccccc1)O2
AC50 [15]: 54 µM (active)

O=C(N=Nc1c(O)[nH]c2ccccc12)c1cc(-c2cccs2)[nH]n1
IC50 [12]: 28.8 µM (active) | IC50 [14]: 11.5 µM (active)

N#CC(c1ccc(F)cc1)c1ccc(C(=O)c2ccccc2)cc1 (centres undefined)
AC50 [15]: > 100 µM (inactive)

CCCCCCCCCCn1ccc(=N)cc1
EC50 [16]: 55 nM (active) | AC50 (INS1): 0.471 µM (active) | EC50 [17]: 10.3 µM (active) | EC50 [18]: 8.93 µM (active) | EC50 [19]: 22.5 µM (active) | EC50 [20]: 8.51 µM (active) | CC50 [8]: 11.4 µM (active) | CC50 [9]: 1.57 µM (active) | IC50 [21]: > 80 µM (inactive) | CC50 [11]: 7.25 µM (active)
